Assay results from patent publication US20240207353A1, “USE OF PEPTIDE AMIDE COMPOUND IN PREPARATION OF DRUG FOR TREATING PRURITUS” (XIZANG HAISCO PHARMACEUTICAL CO., LTD., priority 2021, published 2024).

What was measured:
[1] = test system: compound 48/80-induced scratching behaviour in mice; assay: Antipruritic effect in mouse models with pruritus induced by compound 48/80, intravenous administration; assay type: in vivo, ICR mice
Description: (§1) ICR mice (males) from Beijing Vital River Laboratory Animal Technology Co., Ltd. were randomly grouped, and then administered intravenously with different doses of compound 1 or normal saline. After 15 min, 50 μg of compound 48/80 (Sigma, Cat #: C2313) was injected subcutaneously into the nape of the mice, and the times of scratching of mice within 30 min after injection of compound 48/80 was immediately recorded. The obtained data were processed according to the formula [(times of scratching in solvent control group−times of scratching in administration group)/times of scratching in solvent control group×100] to calculate the inhibition ratio on scratching. Statistical analysis was performed with Graphpad Prism 8 software, and fitting was performed to obtain the ED50 value.

[2] = test system: serotonin hydrochloride-induced scratching behaviour in rats; assay: Antipruritic effect of single administration in rat models with pruritus induced by serotonin hydrochloride; assay type: in vivo, SD rats; conditions: intravenous
Description: SD rats (males) from Beijing Vital River Laboratory Animal Technology Co., Ltd. were randomly grouped, and then administered intravenously with different doses of compound 1 or normal saline. After 15 min, 10 μL of 2% serotonin hydrochloride (Sigma) was injected intradermally into the nape of the rats, and the times of scratching of rats within 60 min after injection of serotonin hydrochloride was immediately recorded. The obtained data were processed according to the formula [(times of scratching in solvent control group−times of scratching in administration group)/times of scratching in solvent control group×100] to calculate the inhibition ratio on scratching. Statistical analysis was performed with Graphpad Prism 8 software, and fitting was performed to obtain the ED50 value.

[3] = test system: compound 48/80-induced scratching behaviour in mice; assay: Antipruritic effect by nasal drip in mouse models with pruritus induced by compound 48/80; assay type: in vivo, ICR mice
Description: as §1, with “then” for “then administered intravenously with”, “saline were administered by nasal drip.” for “saline.”

[4] = test system: haemodialysis subjects with pruritus; assay: Phase II clinical study of safety, pharmacokinetics and efficacy in haemodialysis subjects; assay type: in vivo, human
Description: For compound 1, a multi-centre, randomized, double-blind, placebo-controlled phase II clinical trial for evaluating the safety, pharmacokinetics and efficacy of compound 1 injection in haemodialysis subjects was performed. This study was divided into two phases.
Phase I was a dose-escalation, randomized, double-blind, placebo-controlled study of multiple intravenous administration within 1 week in haemodialysis subjects, in which 40 haemodialysis subjects were scheduled to be enrolled into 4 dose groups: 0.05 μg/kg, 0.15 μg/kg, 0.30 μg/kg and 0.80 μg/kg, with 10 subjects in each group (including 2 subjects in placebo group), and the experimental drug was administered 3 times in each dose group on D1, D3 and D5, respectively.
Phase II was a randomized, double-blind, placebo-controlled study of administration for 12 weeks in haemodialysis subjects with moderate or more severe pruritus. According to the results of phase I study, two dose groups (0.3 μg/kg and 0.6 μg/kg) and a placebo group as control were selected for phase II study, in which 90 haemodialysis subjects with moderate or more severe pruritus were scheduled to be enrolled and assigned to the above-mentioned three groups according to a ratio of 1:1:1, with 30 subjects scheduled to be enrolled in each group, and compound 1 injection or placebo was administered, respectively.

[5] = 15 min before compound 48/80 s.c., scratching within 30 min
[6] = 15 min before serotonin hydrochloride intradermal, scratching within 60 min
[7] = maintenance haemodialysis, dose of 0.05 μg/kg to 0.80 μg/kg
[8] = maintenance haemodialysis, multiple times a week for consecutive 12 weeks
[9] = phase I, 0.05-0.80 μg/kg i.v. on D1, D3, D5, each group after treatment
[10] = phase II, 0.3 and 0.6 μg/kg, 12 weeks, each group after treatment

## CC(=O)N1CC2(CCN(C(=O)[C@@H](CCCCN)NC(=O)[C@@H](CC(C)C)NC(=O)[C@@H](Cc3ccccc3)NC(=O)[C@H](N)Cc3ccccc3)CC2)C1 [Compound 1, (2R)—N-[(1R)-1-(2-acetyl-2,7-diazaspiro[3.5]nonane-7-carbonyl)-5-amino-pentyl]-2-[[(2R)-2-[[(2R)-2-amino-3-phenyl-propionyl]amino]-3-phenylpropionyl]amino]-4-methyl-pentanamide]
[1]
  inhibition of compound 48/80-induced scratching behaviour: inhibited the compound 48/80-induced scratching behaviour in mice in a dose-dependent manner
[1]; [5]
  ED50 value (inhibition ratio on scratching): 0.09 mg/kg
  antipruritic effective dose: 0.03 mg/kg
[2]
  inhibition of serotonin hydrochloride-induced scratching behaviour: inhibited the serotonin hydrochloride-induced scratching behaviour in rats in a dose-dependent manner
[2]; [6]
  ED50 value (inhibition ratio on scratching): 0.03 mg/kg
  antipruritic effective dose: 0.03 mg/kg
[3]
  inhibition of compound 48/80-induced scratching behaviour: inhibited the compound 48/80-induced scratching behaviour in mice in a dose-dependent manner
[3]; [5]
  ED50 value (inhibition ratio on scratching): 2.72 mg/kg
  antipruritic effective dose: 0.3 mg/kg
[4]; 0.30 μg/kg group
  improvement compared to the placebo group: more significant improvement
  maintenance of therapeutic effects after discontinuation: good maintenance of therapeutic effects after discontinuation
[4]; [7]
  safety: generally safe
  serious adverse events related to the experimental drug: no serious adverse events related to the experimental drug
  withdrawal tendency after discontinuation: no obvious withdrawal tendency after discontinuation
[4]; [8]
  overall quality of life: improved
  pruritus symptoms in patients with chronic kidney diseases: could be effectively relieved
[4]; [9]
  NRS scores: all decreased compared to baseline
  total score of Skindex-16 scale: decreased
[4]; [10]
  NRS scores: all decreased compared to baseline
  total score and dimension scores of 5-D scale: all decreased compared to baseline
  total score and dimension scores of Skindex-16 scale: all decreased compared to baseline
